Source: article PMC12081876, “Identification of PTGR2 inhibitors as a new therapeutic strategy for diabetes and obesity” (EMBO Molecular Medicine, 2025)
Values joined by “and” are separate entries in the source; they are usually repeats but may differ in a detail not shown here. Equal entries are not always repeated.

Experiments:
[1] = tested on: HFHSD-fed obese C57BL6/J mice; assay: Intraperitoneal glucose tolerance test (ipGTT); format: in vivo, mouse; set-up: Figure 2H Average (glucose, ipGTT) / ipGTT / ipGTT glucose, Average / Blood glucose during glucose tolerance test (Figure 5L), Average: unit not given here; conditions: for ipGTT: individual mice
Experimental: (§1) Glucose tolerance was evaluated by the oral (OGTT) and intraperitoneal glucose tolerance test (ipGTT) after a 6-h fast. For the OGTT, glucose water (1 mg/g) was given by oral gavage, and tail blood glucose was measured with a glucometer (ACCU-CHEK Performa, Roche) at 0, 15, 30, 45, 60, 90, and 120 min. For the ipGTT, tail blood glucose was measured at 0, 15, 30, 45, 60, 90, and 120 min after intraperitoneal injection of glucose water (1 mg/g). For the insulin tolerance test (ITT), mice were fasted for 4 h and then injected intraperitoneally with 1 U/kg of insulin (Humulin R, Eli Lilly). Tail blood glucose was measured at 0, 15, 30, 45, 60, 90, 120, and 180 min.

[2] = tested on: HFHSD-fed obese C57BL6/J mice; assay: Adipocyte size and number in perigonadal fat (H&E stain); format: in vivo, mouse; conditions: 40 mg/kg/day ip, vs vehicle
From the text: Tissues were fixed in 4% paraformaldehyde and then embedded in paraffin before sectioning and staining. The stained sections were scanned and analyzed using a MIRAX viewer (http://www.zeiss.de/mirax) and Image J software (http://rsbwed.nih.gov/ij/).

[3] = tested on: HFHSD-fed obese C57BL6/J mice; assay: Body weight / diet-induced obesity in HFHSD-fed mice; format: in vivo, mouse; conditions: 40 mg/kg/day ip; for Body weight, individual mice / Body weight, Average: in g (unit assumed)
[4] = tested on: HFHSD-fed obese C57BL6/J mice; assay: Insulin tolerance test (ITT); format: in vivo, mouse; set-up: Figure 2I Average (glucose, ITT) / ITT / ITT glucose, Average / Blood glucose during insulin tolerance test (Figure 5M), Average: unit not given here; conditions: for ITT: individual mice
Experimental: as §1

[5] = tested on: differentiated 3T3-L1 adipocytes; assay: Insulin-stimulated glucose uptake assay by (3H)2-deoxyglucose; format: cell-based, mouse; set-up: insulin-stimulated glucose uptake, Fig 1J replicates / Figure 5E raw value, insulin-stimulated glucose uptake (replicates): unit not given here
Experimental: The cell lines, which were tested for mycoplasma contamination and authenticated, were purchased from the Bioresource Collection and Research Center, Taiwan. All cells were cultured at 37 °C, 5% CO2 in a humidified incubator. HEK293T cells were maintained in DMEM (cat. no. SH30003.02, HyClone) supplemented with 10% fetal bovine serum (FBS) (cat. no. 04-001-1A, Biological Industries) and 1% antibiotic/antimycotic solution (cat. no. SV30079.01, HyClone). 3T3-L1 preadipocytes were maintained at ~70% confluence in DMEM with 10% calf serum (cat. no. 16170078, Gibco) and 1% antibiotic/antimycotic solution. For adipocyte differentiation, confluent 3T3-L1 cells (defined as day 0) were exposed to an induction medium containing 10% FBS, 1 μM dexamethasone (cat. no. D4902, Sigma-Aldrich), and 1 μg/ml insulin (Humulin R, Eli Lilly) in DMEM with or without 0.5 mM isobutyl-methylxanthine (cat. no. sc-201188A, Santa Cruz Biotechnology) as indicated. After two days, the medium was replaced with DMEM containing 10% FBS and 1 μg/ml insulin and was replenished every two days until assay.
Differentiated 3T3-L1 cells were starved with serum-free DMEM containing 0.2% BSA (cat. no. A9647, Sigma-Aldrich). Cells were rinsed twice with KRH buffer (137 mM NaCl, 4.7 mM KCl, 1.85 mM CaCl2, 1.3 mM MgSO4, 50 mM HEPES and 0.1% BSA, pH 7.4), and treated with or without […] insulin in the presence of 20 μM cytochalasin B (cat. no. 11328, Cayman Chemical), a GLUT inhibitor for measuring non-specific glucose uptake, for 30 min. Cells were then incubated with 0.5 μCi [^3H]-2-deoxy-D-Glucose (cat. no. NET328A001MC, PerkinElmer) and 0.1 μM 2-deoxy-D-Glucose (2DG) (cat. no. 14325, Cayman Chemical) for 5 min. Uptake of 2DG was terminated by rapidly removing medium and washing with ice-cold PBS three times. Cells were lysed with 0.1% SDS, and the radioactivity was measured using a liquid scintillation counter. Insulin-mediated glucose uptake was calculated by subtracting insulin-treated glucose uptake with basal glucose uptake.

[6] = 40 mg/kg/day ip, 3 weeks, HFHSD-fed mice, vs vehicle

## CCCCCC(=O)/C=C/[C@H]1[C@H](O)CC(=O)[C@@H]1C/C=C\CCCC(=O)O [15-keto-PGE2, 15-keto-prostaglandin E2]
[1]; [6]
  glucose tolerance (ipGTT): markedly improved
[1]; 0 min
  ipGTT: 105 and 98 and 102 and 88 and 151 and 155 and 75 and 78 and 93 and 125 and 111
[1]; 15 min
  ipGTT: 222 and 226 and 190 and 213 and 239 and 234 and 324 and 231 and 152 and 188 and 183 and 251 and 245 and 276
[1]; 30 min
  ipGTT: 262 and 264 and 155 and 201 and 221 and 211 and 273 and 247 and 125 and 124 and 200 and 186 and 235 and 231 and 280
[1]; 45 min
  ipGTT: 229 and 251 and 162 and 188 and 184 and 199 and 252 and 215 and 109 and 112 and 132 and 155 and 211 and 175 and 213
[1]; 60 min
  ipGTT: 262 and 225 and 130 and 171 and 177 and 179 and 196 and 206 and 110 and 120 and 89 and 133 and 182 and 155 and 205
[1]; 90 min
  ipGTT: 208 and 191 and 114 and 152 and 166 and 143 and 171 and 181 and 88 and 108 and 112 and 151 and 124
[1]; 120 min
  ipGTT: 166 and 121 and 99 and 122 and 118 and 90 and 69 and 80 and 108 and 131 and 100 and 135
[1]; time 0
  Figure 2H Average (glucose, ipGTT): 108.467
[1]; time 15
  Figure 2H Average (glucose, ipGTT): 223.8
[1]; time 30
  Figure 2H Average (glucose, ipGTT): 214.333
[1]; time 45
  Figure 2H Average (glucose, ipGTT): 185.8
[1]; time 60
  Figure 2H Average (glucose, ipGTT): 169.333
[1]; time 90
  Figure 2H Average (glucose, ipGTT): 144.2
[1]; time 120
  Figure 2H Average (glucose, ipGTT): 109.267
[2]
  adipocyte size: smaller
  number of adipocytes: no difference
[3]; 3 weeks, HFHSD-fed mice, vs vehicle
  diet-induced obesity (body weight): protected against diet-induced obesity
[3]; treatment day 1, 40 mg/kg/day
  Body weight, individual mice: 31.70 and 29.90 and 31.10 and 26.25 and 27.55
[3]; treatment day 1
  Body weight, Average: 29.83
[3]; treatment day 2, 40 mg/kg/day
  Body weight, individual mice: 31.55 and 28.75 and 30.85 and 26.15 and 27.85
[3]; treatment day 2
  Body weight, Average: 29.61
[3]; treatment day 3, 40 mg/kg/day
  Body weight, Average: 29.4
  Body weight, individual mice: 31.60 and 29.00 and 30.75 and 25.90 and 26.35
[3]; treatment day 4, 40 mg/kg/day
  Body weight, individual mice: 32.50 and 27.95 and 30.90 and 25.75 and 26.90
[3]; treatment day 4
  Body weight, Average: 29.42
[3]; treatment day 5, 40 mg/kg/day
  Body weight, individual mice: 32.50 and 26.45 and 30.70 and 25.35 and 26.25
[3]; treatment day 5
  Body weight, Average: 29.42
[3]; treatment day 6, 40 mg/kg/day
  Body weight, individual mice: 32.60 and 26.45 and 30.00 and 25.75
[3]; treatment day 6
  Body weight, Average: 29.49
[3]; treatment day 7, 40 mg/kg/day
  Body weight, individual mice: 32.60 and 26.55 and 30.10 and 26.40
[3]; treatment day 7
  Body weight, Average: 29.61
[3]; treatment day 8, 40 mg/kg/day
  Body weight, individual mice: 31.90 and 27.35 and 30.10 and 25.05
[3]; treatment day 8
  Body weight, Average: 29.92
[3]; treatment day 9, 40 mg/kg/day
  Body weight, individual mice: 31.40 and 28.05 and 30.70 and 25.90
[3]; treatment day 9
  Body weight, Average: 29.95
[3]; treatment day 10, 40 mg/kg/day
  Body weight, individual mice: 30.70 and 28.45 and 30.20 and 26.55 and 27.35
[3]; treatment day 10
  Body weight, Average: 29.99
[3]; treatment day 11, 40 mg/kg/day
  Body weight, individual mice: 31.60 and 28.55 and 30.40 and 27.50 and 26.90
[3]; treatment day 11
  Body weight, Average: 30.05
[3]; treatment day 12, 40 mg/kg/day
  Body weight, Average: 30.2
  Body weight, individual mice: 31.60 and 29.05 and 30.95 and 27.45 and 27.10
[3]; treatment day 13, 40 mg/kg/day
  Body weight, individual mice: 31.75 and 30.2 and 31.6 and 28.55 and 28.05
[3]; treatment day 13
  Body weight, Average: 30.36
[3]; treatment day 14, 40 mg/kg/day
  Body weight, individual mice: 31.65 and 30.50 and 31.35 and 28.35 and 27.80
[3]; treatment day 14
  Body weight, Average: 30.49
[3]; treatment day 15, 40 mg/kg/day
  Body weight, individual mice: 31.70 and 29.55 and 30.65 and 27.45 and 27.00
[3]; treatment day 15
  Body weight, Average: 30.22
[3]; treatment day 16, 40 mg/kg/day
  Body weight, individual mice: 31.85 and 29.40 and 30.30 and 27.00 and 26.50
[3]; treatment day 16
  Body weight, Average: 30.12
[3]; treatment day 17, 40 mg/kg/day
  Body weight, individual mice: 32.75 and 29.85 and 31.95 and 27.85 and 26.80
[3]; treatment day 17
  Body weight, Average: 30.56
[3]; treatment day 18, 40 mg/kg/day
  Body weight, individual mice: 31.80 and 29.75 and 32.10 and 27.75
[3]; treatment day 18
  Body weight, Average: 30.63
[3]; treatment day 19, 40 mg/kg/day
  Body weight, individual mice: 33.15 and 31.50 and 32.00 and 28.35 and 27.70
[3]; treatment day 19
  Body weight, Average: 30.65
[3]; treatment day 20, 40 mg/kg/day
  Body weight, individual mice: 33.10 and 30.85 and 31.55 and 27.75 and 27.15
[3]; treatment day 20
  Body weight, Average: 30.69
[3]; treatment day 21, 40 mg/kg/day
  Body weight, individual mice: 32.55 and 30.9 and 31.6 and 28 and 28.15
[3]; treatment day 21
  Body weight, Average: 30.73
[4]; [6]
  insulin sensitivity (ITT): markedly improved
[4]; 0 min
  ITT: 113 and 114 and 91 and 147 and 149 and 115 and 92 and 118 and 94 and 110 and 98 and 125
[4]; 15 min
  ITT: 59 and 78 and 70 and 67 and 83 and 90 and 111 and 75 and 45 and 63 and 82 and 49 and 92
[4]; 30 min
  ITT: 56 and 79 and 54 and 62 and 52 and 71 and 66 and 57 and 43 and 75 and 46
[4]; 45 min
  ITT: 34 and 60 and 37 and 51 and 42 and 62 and 56 and 47 and 44 and 30 and 54 and 50 and 29
[4]; 60 min
  ITT: 23 and 57 and 21 and 58 and 46 and 66 and 49 and 34 and 31 and 26 and 51 and 53 and 50 and 39 and 29
[4]; 90 min
  ITT: 22 and 65 and 25 and 41 and 63 and 57 and 31 and 37 and 56 and 38 and 49 and 24 and 27
[4]; 120 min
  ITT: 46 and 53 and 25 and 39 and 54 and 62 and 47 and 31 and 70 and 51 and 36
[4]; 180 min
  ITT: 98 and 66 and 25 and 65 and 84 and 62 and 77 and 73 and 54 and 78 and 69 and 82
[4]; time 0
  Figure 2I Average (glucose, ITT): 112.333
[4]; time 15
  Figure 2I Average (glucose, ITT): 74.4667
[4]; time 30
  Figure 2I Average (glucose, ITT): 60.8
[4]; time 45
  Figure 2I Average (glucose, ITT): 46.2667
[4]; time 60
  Figure 2I Average (glucose, ITT): 42.2
[4]; time 90
  Figure 2I Average (glucose, ITT): 41.1333
[4]; time 120
  Figure 2I Average (glucose, ITT): 45.6667
[4]; time 180
  Figure 2I Average (glucose, ITT): 67.6667
[5]; 15kPGE2 1
  insulin-stimulated glucose uptake, Fig 1J replicates: 1.328 and 1.441 and 0.8491 and 1.4653
[5]; 15kPGE2 5
  insulin-stimulated glucose uptake, Fig 1J replicates: 3.521 and 4.331 and 2.858 and 2.553
[5]; 15kPGE2 10
  insulin-stimulated glucose uptake, Fig 1J replicates: 4.083 and 4.476 and 3.119 and 3.373
[5]; differentiated 3T3-L1 adipocytes
  insulin-stimulated glucose uptake: increased insulin-stimulated glucose uptake in differentiated 3T3-L1 adipocytes dose-dependently
